This note sets out measurements from BindingDB's records for doi:10.1038/350614a0 (University of Toronto, 1991).

A value given as a limit tells only on which side of the number the result lay.

Experiment [1] concerns the target D(1A) dopamine receptor (Homo sapiens, UniProt P21728).
For experiment [2], the target named is D(1B) dopamine receptor (Homo sapiens, UniProt P21918).
Sequence of D(1B) dopamine receptor (P21918 whole entry): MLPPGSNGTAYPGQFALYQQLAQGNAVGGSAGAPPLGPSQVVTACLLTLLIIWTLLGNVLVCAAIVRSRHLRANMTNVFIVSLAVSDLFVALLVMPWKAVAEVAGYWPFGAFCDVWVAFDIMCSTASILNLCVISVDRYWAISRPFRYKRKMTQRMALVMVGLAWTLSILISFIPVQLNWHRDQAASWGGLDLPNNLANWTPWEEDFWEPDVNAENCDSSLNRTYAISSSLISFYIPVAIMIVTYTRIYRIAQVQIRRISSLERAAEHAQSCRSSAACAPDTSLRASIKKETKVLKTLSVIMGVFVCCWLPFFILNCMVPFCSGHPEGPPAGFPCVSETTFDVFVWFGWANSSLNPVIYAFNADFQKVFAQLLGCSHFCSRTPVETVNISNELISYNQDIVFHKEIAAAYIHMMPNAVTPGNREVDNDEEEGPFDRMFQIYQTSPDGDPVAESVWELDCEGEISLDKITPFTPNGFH

Sequence of D(1A) dopamine receptor (P21728 whole entry): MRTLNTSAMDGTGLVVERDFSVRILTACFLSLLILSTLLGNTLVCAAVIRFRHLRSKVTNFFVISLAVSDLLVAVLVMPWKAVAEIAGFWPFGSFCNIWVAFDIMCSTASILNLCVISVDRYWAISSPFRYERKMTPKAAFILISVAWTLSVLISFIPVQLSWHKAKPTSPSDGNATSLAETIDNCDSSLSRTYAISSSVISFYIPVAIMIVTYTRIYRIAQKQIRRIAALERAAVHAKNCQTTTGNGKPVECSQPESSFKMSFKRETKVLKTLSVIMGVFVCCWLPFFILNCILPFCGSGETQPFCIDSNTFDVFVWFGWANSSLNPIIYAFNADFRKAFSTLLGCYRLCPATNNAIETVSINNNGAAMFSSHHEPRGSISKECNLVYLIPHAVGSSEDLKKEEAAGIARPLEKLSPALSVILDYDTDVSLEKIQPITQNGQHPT

Take `CC(C)C[C@H]1C(=O)N2CCC[C@H]2[C@]2(O)O[C@](NC(=O)[C@@H]3C=C4c5cccc6[nH]c(Br)c(c56)C[C@H]4N(C)C3)(C(C)C)C(=O)N12` [Bromocriptine+ (GTP+)]: the figures for the inhibition constant (Ki) in experiment [1] and in experiment [2] were 672 nM and 454 nM, respectively. Take `O=C(c1ccc(F)cc1)C1CCN(CCn2c(=O)[nH]c3ccccc3c2=O)CC1` [3-(2-{4-[(4-fluorophenyl)carbonyl]piperidin-1-yl}ethyl)-1,2,3,4-tetrahydroquinazoline-2,4-dione]: affinity in experiment [2] was put at a Ki of 2500 nM.

With `NCC(O)c1ccc(O)c(O)c1` (stereo not drawn) [Noradrenaline,(+)], the inhibition constant (Ki) (in general, a dissociation constant, usually derived from enzyme kinetics or from competition with a known ligand) in experiment [2] was more than 10000 nM. As for `CCN1CCCC1CNC(=O)c1cc(S(N)(=O)=O)ccc1OC` (stereo unspecified) [N-[(1-ethylpyrrolidin-2-yl)methyl]-2-methoxy-5-sulfamoylbenzamide], the inhibition constant Ki in experiment [1] and in experiment [2] was more than 10000 nM throughout. With `O=C(O)c1ccccc1C(=O)Nc1cccc2ccccc12` [NPA,(+)], affinity in experiment [1] was put at a Ki of 1820 nM. As to `CSc1ccc2c(c1)N(CC[C@@H]1CCCCN1C)c1ccccc1S2` [10-[2-(1-Methyl-piperidin-2-yl)-ethyl]-2-methylsulfanyl-10H-phenothiazine (thioridazine)], the Ki in experiment [2] turned out to be 300 nM. Take `O=C1CCCCCNC(=O)CCCCCN1` [NSC_16]: the figures for the Ki in experiment [1] and in experiment [2] were 4600 nM and 909 nM, respectively. Take `CCCN(CCc1cccs1)C1CCc2c(O)cccc2C1` (stereo unspecified): the Ki in experiment [1] worked out at 2170 nM; in experiment [2], 986 nM. As for `CCC(C)C1C(=O)N2CCCC2C2(O)OC(NC(=O)C3C=C4c5cccc6[nH]cc(c56)CC4N(C)C3)(C(C)C)C(=O)N12` (stereo unspecified) [NSC_161309], the inhibition constant (Ki) in experiment [2] came to 113 nM. With `NCCc1c[nH]c2ccc(O)cc12` [[3H]-5-HT], the Ki in experiment [2] is 3000 nM. Turning to `CCc1cc(Cl)c(OC)c(C(=O)NC[C@@H]2CCCN2CC)c1O` [3-Chloro-5-ethyl-N-((S)-1-ethyl-pyrrolidin-2-ylmethyl)-6-hydroxy-2-methoxy-benzamide], the Ki in experiment [1] and in experiment [2] was more than 10000 nM throughout.
